In patent US11851670B2, “Nucleic acid constructs encoding reprogramming factors linked by self-cleaving peptides” (Whitehead Institute for Biomedical Research, priority 2008, dated 2023):

Key:
NGFP3 secondary MEFs = assay: Effect of drugs on dox-induced reprogramming of secondary MEFs (GFP+ colony count); format: cell-based, mouse; details: dox plus 1 μM compound for two 48 h periods
From the text: We also tested whether the secondary cells could be used to assess the effect of drugs on the efficiency of reprogramming. For this we explored the effects of the DNA demethylating compound 5-Aza-deoxycytidine (5-Aza) and the histone deacetylase inhibitor trichostatin A (TSA). Because of their action on chromatin modifications both small molecules are candidates to improve the 5reprogramming efficiency.
For MEF isolation, chimeric embryos were isolated at E13.5 and the head and internal (including reproductive) organs were removed. Remaining tissue was physically dissociated and incubated in trypsin at 37° C. for 20 minutes, after which cells were resuspended in MEF media containing puromycin (2 μg/mL) and expanded for two passages prior to freezing. Secondary MEFs used for the described experiments were thawed and experiments plated 1-2 passages after thawing. Kinetic experiments (FIG. 2) were performed by plating 4×10^4 secondary MEFs per well in 6 well plates and plates were stained or analyzed at the indicated times. Cell density experiments were performed in 12 well plates and GFP+ iPS colonies were scored 4 weeks after dox induction. Single cell efficiency experiments were performed by plating single secondary MEFs onto a layer of wildtype feeder MEFS in 96 well plates prior to dox induction (using limiting dilutions, which were confirmed by eye in replicate plates lacking feeder MEFs). iPS formation was scored 4 weeks later. Representative experiments from 2-3 biological replicates are shown. For 5-Aza and TSA experiments, […] secondary MEFs were plated in 6 well plates (approx 100 cells/mm^2) and pretreated with ES cell media containing 5-Aza (1 μM) or TSA (1 μM) for 48 h. After 48 h, secondary MEFs were cultured in ES cell media plus dox lacking 5-Aza or TSA. MEFS were exposed to 5-Aza or TSA for a second 48 h period between days 8-10 after induction, followed by culture with dox only until scoring GFP+ colonies on day 21.

mouse fibroblasts = details: treatment decreasing global DNA methylation; cited from earlier work
ES cells = details: chemically defined medium, absence of LIF; cited from earlier work
SOX2-ER fusion construct = assay: Tamoxifen-dependent activation of SOX2-ER fusion construct in transduced fibroblasts; format: cell-based, human; details: cells transduced with SOX2-ER fusion construct
From the text: (a) DOX inducible lentivirus vectors: Following the same strategy as used for murine genes we have generated lentiviral vectors that transduce the human OCT4, SOX2, KLF4 and C-MYC c-DNAs either constitutively or under the control of a DOX inducible promoter [Brambrink, 2008 #6877]. To generate a DOX inducible system we infected human fibroblasts with a lentiviral vector carrying the rtTA transactivator. […] (b) Tamoxifen inducible lentivirus vectors: To enable independent inducible control of vectors we also generated OCT4, SOX2 and C-MYC estrogen receptor (ER) fusion constructs by fusing the factors to the estrogen ligand binding domain to allow for tamoxifen dependent expression [Grandori, 1996 #6505].

huES cells = details: cited from earlier work

For `CC(/C=C/C(=O)NO)=C\[C@@H](C)C(=O)c1ccc(N(C)C)cc1` [TSA, trichostatin A], the “reprogramming efficiency (number of GFP+ colonies)” value (shortened to “reprogramming efficiency”) (NGFP3 secondary MEFs; GFP+ colonies scored on day 21) was “no obvious effect on the number of colonies”.
For `Nc1ncn([C@H]2C[C@H](O)[C@@H](CO)O2)c(=O)n1` [5-Aza, 5-Aza-deoxycytidine], the “reprogramming of mouse fibroblasts” value (mouse fibroblasts) is given as “enhance reprogramming of mouse fibroblasts”, the “reprogramming efficiency” value (NGFP3 secondary MEFs; GFP+ colonies scored on day 21) is given as “increased the reprogramming efficiency” and the “reprogramming efficiency” value (NGFP3 secondary MEFs; GFP+ colonies scored on day 21, listed as 5-Aza-deoxycytidine) is given as “substantially enhances the reprogramming efficiency”.
In the case of `Cc1cc(Nc2ncc3c(n2)N(C)C(=O)N(c2cc(NC(=O)c4cccc(C(F)(F)F)c4)ccc2C)C3)n(C)n1` [pluripotin], the “self renewal of ES cells” value (ES cells) is given as “sustains self renewal of ES cells”.
With `CC/C(=C(\c1ccccc1)c1ccc(OCCN(C)C)cc1)c1ccccc1` [tamoxifen] the “localisation of SOX2 protein after tamoxifen addition” value (SOX2-ER fusion construct) was “translocation of the SOX2 protein from the cytoplasm to the nucleus”.
For `C[C@@H](N)[C@H]1CC[C@H](C(=O)Nc2ccncc2)CC1` [Y-27632], the cloning efficiency (huES cells) is listed as “increase cloning efficiency” and the dissociation-induced apoptosis (huES cells) is listed as “markedly diminish dissociation-induced apoptosis”.
